Holding throughout (assay type): functional
Assay [1] has as its system Burkholderia cepacia. The experiment in a line: Antibacterial activity against Burkholderia cepacia ATCC 39277 after 18 hrs by broth dilution method. The conditions noted are these: ATCC 39277, 18 h.
Assay [2] deals with Escherichia coli. The experiment in a line: Antibacterial activity against Escherichia coli ATCC 29425 after 18 hrs by broth dilution method. The following applies: ATCC 29425, 18 h. On the technique in general: Dilution methods test growth across graded concentrations, often in twofold steps.
Assay [3] relates to Escherichia coli. As to the kind of experiment: Antibacterial activity against TolC deficient Escherichia coli 701 after 18 hrs by broth dilution method. The conditions noted are these: Escherichia coli, 701, 18 h.
Assay [4] deals with Pseudomonas aeruginosa. As to the kind of experiment: Antibacterial activity against Pseudomonas aeruginosa PAO1 ATCC BAA-47 after 18 hrs by broth dilution method. The conditions noted are these: PAO1 ATCC BAA-47, 18 h.
A further assay deals with Bacillus subtilis. As to the kind of experiment: Antibacterial activity against Bacillus subtilis BD54 after 18 hrs by broth dilution method. The conditions noted are these: BD54, 18 h.
Assay [5] has as its system Stenotrophomonas maltophilia. The experiment in a line: Antibacterial activity against Stenotrophomonas maltophilia ATCC 13637 after 18 hrs by broth dilution method. The following applies: ATCC 13637, 18 h.
The subject of assay [6] is Staphylococcus aureus. The experiment in a line: Antibacterial activity against methicillin-resistant Staphylococcus aureus 1094 after 18 hrs by broth dilution method. The following applies: Staphylococcus aureus, 1094, 18 h.
The subject of assay [7] is Staphylococcus aureus. The experiment in a line: Antibacterial activity against Staphylococcus aureus ATCC 25923 after 18 hrs by broth dilution method. The conditions noted are these: ATCC 25923, 18 h.
The test system of the next assay is Bacillus anthracis. The experiment in a line: Antibacterial activity against Bacillus anthracis Sterne after 18 hrs by broth dilution method.
The test system of assay [8] is Pseudomonas aeruginosa. As to the kind of experiment: Antibacterial activity against Pseudomonas aeruginosa PAO1 harboring oprM deltamexAB after 18 hrs by broth dilution method. The conditions noted are these: PAO1, 18 h.
In assay [9] the test system is Enterococcus faecalis. The experiment in a line: Antibacterial activity against vancomycin-resistant Enterococcus faecalis ATCC 51575 after 18 hrs by broth dilution method. The conditions noted are these: ATCC 51575, 18 h.
In assay [10] the test system is Staphylococcus aureus. The experiment in a line: Antibacterial activity against Staphylococcus aureus ATCC 25923 after 16 to 18 hrs by agar dilution method. (Agar dilution tests growth on a series of plates holding different concentrations.)
For assay [11], the system named is Klebsiella pneumoniae. As to the kind of experiment: Antibacterial activity against Klebsiella pneumoniae ATCC 700603 after 18 hrs by broth dilution method. The following applies: ATCC 700603, 18 h.
In assay [12] the test system is Enterococcus faecalis. The experiment in a line: Antibacterial activity against Enterococcus faecalis ATCC 29212 after 16 to 18 hrs by agar dilution method.
For assay [13], the system named is Escherichia coli. The experiment in a line: Antibacterial activity against Escherichia coli 700 expressing TolC after 18 hrs by broth dilution method. The following applies: Escherichia coli, 700, 18 h.
Assay [14] concerns Enterococcus faecalis. The experiment in a line: Antibacterial activity against Enterococcus faecalis ATCC 29212 after 18 hrs by broth dilution method. The following applies: ATCC 29212, 18 h.
Assay [15] concerns Escherichia coli. The experiment in a line: Antibacterial activity against Escherichia coli ATCC 29425 after 16 to 18 hrs by agar dilution method.
In assay [16] the test system is Klebsiella pneumoniae. As to the kind of experiment: Antibacterial activity against Klebsiella pneumoniae ATCC 13882 after 18 hrs by broth dilution method. The conditions noted are these: ATCC 13882, 18 h.
In another assay the test system is Acinetobacter baumannii. As to the kind of experiment: Antibacterial activity against Acinetobacter baumannii ATCC 19606 after 18 hrs by broth dilution method. The following applies: ATCC 19606 = CIP 70.34 = JCM 6841, 18 h.
Assay [17] deals with Burkholderia cepacia. As to the kind of experiment: Antibacterial activity against Burkholderia cepacia ATCC 55792 after 18 hrs by broth dilution method. The following applies: ATCC 55792, 18 h.

Some results are limits rather than exact numbers.

As to `CCN1CCN(c2cc3c(cc2F)c(=O)ccn3C2CC2)CC1`, the MIC (in the assay with Burkholderia cepacia [1]; against Escherichia coli [2]; with Escherichia coli [3]; against Pseudomonas aeruginosa [4]; with Bacillus subtilis; in [5]) was over 80 µg/mL in each case. The MIC was over 80 µg/mL against Staphylococcus aureus [6]; over 80 µg/mL against Staphylococcus aureus [7]; over 80 µg/mL in the assay with Bacillus anthracis; over 80 µg/mL in the assay with Pseudomonas aeruginosa [8]; over 80 µg/mL with Enterococcus faecalis [9]; over 64 µg/mL in the assay on Staphylococcus aureus [10]. For the same compound, the MIC in the assay on Klebsiella pneumoniae [11] is over 80 µg/mL; with Enterococcus faecalis [12] it was over 64 µg/mL; in the assay with Escherichia coli [13], over 80 µg/mL; against Enterococcus faecalis [14], over 80 µg/mL; with Escherichia coli [15] it was over 64 µg/mL; in the assay with Klebsiella pneumoniae [16], over 80 µg/mL. Further, the MIC in the assay with Acinetobacter baumannii and in the assay with Burkholderia cepacia [17] was over 80 µg/mL each time.

By MIC is commonly meant the lowest concentration that inhibits growth of the organism.

The values are drawn from ChEMBL document CHEMBL1833882, “Preparation and antibacterial evaluation of decarboxylated fluoroquinolones” (2011).
